Experimental data reported in ChEMBL document CHEMBL1671742, “Overexpression of the adeB gene in clinical isolates of tigecycline-nonsusceptible Acinetobacter baumannii without insertion mutations in adeRS” (Antimicrob Agents Chemother, 2010).
Values after ≈ are worked out from the molar mass of the structure shown.

How the values were obtained:
[1] = test system: Acinetobacter baumannii; experiment: Antibacterial activity against intI1-positive tigecycline-resistant Acinetobacter baumannii AB118 with PFGE subgroup B2 containing carbapenemase OXA-23 and OXA-51 by Etest; type: functional
[2] = test system: Acinetobacter baumannii; experiment: Antibacterial activity against intI1-negative tigecycline-intermediate Acinetobacter baumannii AB098 with PFGE subgroup F containing carbapenemase OXA-23 and OXA-51 by Etest; type: functional
[3] = test system: Acinetobacter baumannii; experiment: Antibacterial activity against intI1-positive tigecycline-resistant Acinetobacter baumannii AB106 with PFGE subgroup B1 containing carbapenemase OXA-23 and OXA-51 by Etest; type: functional
[4] = test system: Acinetobacter baumannii; experiment: Antibacterial activity against intI1-positive tigecycline-resistant Acinetobacter baumannii AB097 with PFGE subgroup B1 containing carbapenemase OXA-23 and OXA-51 by Etest; type: functional
[5] = test system: Acinetobacter baumannii; experiment: Antibacterial activity against intI1-positive tigecycline-susceptible Acinetobacter baumannii AB018 with PFGE subgroup G containing carbapenemase OXA-58 and OXA-51 by Etest; type: functional
[6] = test system: Acinetobacter baumannii; experiment: Antibacterial activity against intI1-positive tigecycline-resistant Acinetobacter baumannii AB125 with PFGE subgroup A1 containing carbapenemase OXA-23 and OXA-51 by Etest; type: functional
[7] = test system: Acinetobacter baumannii; experiment: Antibacterial activity against intI1-positive tigecycline-intermediate Acinetobacter baumannii AB166 with PFGE subgroup A3 containing carbapenemase OXA-51 by Etest; type: functional
[8] = test system: Acinetobacter baumannii; experiment: Antibacterial activity against intI1-positive tigecycline-resistant Acinetobacter baumannii AB113 with PFGE subgroup B1 containing carbapenemase OXA-23 and OXA-51 by Etest; type: functional
[9] = test system: Acinetobacter baumannii; experiment: Antibacterial activity against intI1-positive tigecycline-resistant Acinetobacter baumannii AB173 with PFGE subgroup B1 containing carbapenemase OXA-23 and OXA-51 by Etest; type: functional
[10] = test system: Acinetobacter baumannii; experiment: Antibacterial activity against intI1-positive tigecycline-resistant Acinetobacter baumannii AB168 with PFGE subgroup A1 containing carbapenemase OXA-23 and OXA-51 by Etest; type: functional
[11] = test system: Acinetobacter baumannii; experiment: Antibacterial activity against intI1-positive tigecycline-susceptible Acinetobacter baumannii AB110 with PFGE subgroup C containing carbapenemase OXA-51 by Etest; type: functional
[12] = test system: Acinetobacter baumannii; experiment: Antibacterial activity against intI1-positive tigecycline-intermediate Acinetobacter baumannii AB127 with PFGE subgroup I containing carbapenemase OXA-23 and OXA-51 by Etest; type: functional
[13] = test system: Acinetobacter baumannii; experiment: Antibacterial activity against intI1-positive tigecycline-resistant Acinetobacter baumannii AB134 with PFGE subgroup A2 containing carbapenemase OXA-23 and OXA-51 by Etest; type: functional
[14] = test system: Acinetobacter baumannii; experiment: Antibacterial activity against intI1-positive tigecycline-susceptible Acinetobacter baumannii AB095 with PFGE subgroup E containing carbapenemase OXA-23 and OXA-51 by Etest; type: functional
[15] = test system: Acinetobacter baumannii; experiment: Antibacterial activity against intI1-positive tigecycline-resistant Acinetobacter baumannii AB096 with PFGE subgroup B1 containing carbapenemase OXA-23 and OXA-51 by Etest; type: functional
[16] = test system: Acinetobacter baumannii; experiment: Antibacterial activity against intI1-positive tigecycline-intermediate Acinetobacter baumannii AB099 with PFGE subgroup H containing carbapenemase OXA-23 and OXA-51 by Etest; type: functional
[17] = test system: Acinetobacter baumannii; experiment: Antibacterial activity against intI1-positive tigecycline-susceptible Acinetobacter baumannii AB039 with PFGE subgroup B1 containing carbapenemase OXA-23 and OXA-51 by Etest; type: functional
[18] = test system: Acinetobacter baumannii; experiment: Antibacterial activity against Multidrug-resistant Acinetobacter baumannii clinical isolate by broth microdilution method; type: functional
[19] = test system: Acinetobacter baumannii; experiment: Antibacterial activity against intI1-positive tigecycline-susceptible Acinetobacter baumannii AB018 with PFGE subgroup G containing carbapenemase OXA-58 and OXA-51 by Etest in presence of 64 mg/liter 1-(1-naphthylmethyl)-piperazine; type: functional
[20] = test system: Acinetobacter baumannii; experiment: Antibacterial activity against intI1-positive tigecycline-resistant Acinetobacter baumannii AB168 with PFGE subgroup A1 containing carbapenemase OXA-23 and OXA-51 by Etest in presence of 64 mg/liter 1-(1-naphthylmethyl)-piperazine; type: functional
[21] = test system: Acinetobacter baumannii; experiment: Antibacterial activity against intI1-positive tigecycline-intermediate Acinetobacter baumannii AB099 with PFGE subgroup H containing carbapenemase OXA-23 and OXA-51 by Etest in presence of 64 mg/liter 1-(1-naphthylmethyl)-piperazine; type: functional
[22] = test system: Acinetobacter baumannii; experiment: Antibacterial activity against intI1-positive tigecycline-resistant Acinetobacter baumannii AB106 with PFGE subgroup B1 containing carbapenemase OXA-23 and OXA-51 by Etest in presence of 64 mg/liter 1-(1-naphthylmethyl)-piperazine; type: functional
[23] = test system: Acinetobacter baumannii; experiment: Antibacterial activity against intI1-positive tigecycline-susceptible Acinetobacter baumannii AB095 with PFGE subgroup E containing carbapenemase OXA-23 and OXA-51 by Etest in presence of 64 mg/liter 1-(1-naphthylmethyl)-piperazine; type: functional
[24] = test system: Acinetobacter baumannii; experiment: Antibacterial activity against intI1-positive tigecycline-resistant Acinetobacter baumannii AB097 with PFGE subgroup B1 containing carbapenemase OXA-23 and OXA-51 by Etest in presence of 64 mg/liter 1-(1-naphthylmethyl)-piperazine; type: functional
[25] = test system: Acinetobacter baumannii; experiment: Antibacterial activity against intI1-positive tigecycline-susceptible Acinetobacter baumannii AB039 with PFGE subgroup B1 containing carbapenemase OXA-23 and OXA-51 by Etest in presence of 64 mg/liter 1-(1-naphthylmethyl)-piperazine; type: functional
[26] = test system: Acinetobacter baumannii; experiment: Antibacterial activity against Multidrug-resistant Acinetobacter baumannii by broth microdilution method; type: functional
[27] = test system: Acinetobacter baumannii; experiment: Antibacterial activity against intI1-positive tigecycline-resistant Acinetobacter baumannii AB173 with PFGE subgroup B1 containing carbapenemase OXA-23 and OXA-51 by Etest in presence of 64 mg/liter 1-(1-naphthylmethyl)-piperazine; type: functional
[28] = test system: Acinetobacter baumannii; experiment: Antibacterial activity against intI1-positive tigecycline-intermediate Acinetobacter baumannii AB166 with PFGE subgroup A3 containing carbapenemase OXA-51 by Etest in presence of 64 mg/liter 1-(1-naphthylmethyl)-piperazine; type: functional
[29] = test system: Acinetobacter baumannii; experiment: Antibacterial activity against intI1-positive tigecycline-resistant Acinetobacter baumannii AB113 with PFGE subgroup B1 containing carbapenemase OXA-23 and OXA-51 by Etest in presence of 64 mg/liter 1-(1-naphthylmethyl)-piperazine; type: functional
[30] = test system: Acinetobacter baumannii; experiment: Antibacterial activity against intI1-positive tigecycline-intermediate Acinetobacter baumannii AB127 with PFGE subgroup I containing carbapenemase OXA-23 and OXA-51 by Etest in presence of 64 mg/liter 1-(1-naphthylmethyl)-piperazine; type: functional
[31] = test system: Acinetobacter baumannii; experiment: Antibacterial activity against intI1-positive tigecycline-resistant Acinetobacter baumannii AB134 with PFGE subgroup A2 containing carbapenemase OXA-23 and OXA-51 by Etest in presence of 64 mg/liter 1-(1-naphthylmethyl)-piperazine; type: functional
[32] = test system: Acinetobacter baumannii; experiment: Antibacterial activity against intI1-positive tigecycline-susceptible Acinetobacter baumannii AB110 with PFGE subgroup C containing carbapenemase OXA-51 by Etest in presence of 64 mg/liter 1-(1-naphthylmethyl)-piperazine; type: functional
[33] = test system: Acinetobacter baumannii; experiment: Antibacterial activity against intI1-positive tigecycline-resistant Acinetobacter baumannii AB118 with PFGE subgroup B2 containing carbapenemase OXA-23 and OXA-51 by Etest in presence of 64 mg/liter 1-(1-naphthylmethyl)-piperazine; type: functional
[34] = test system: Serum; experiment: Steady state drug concentration in human serum; type: ADME, cell-free
[35] = test system: Acinetobacter baumannii; experiment: Antibacterial activity against intI1-positive tigecycline-resistant Acinetobacter baumannii AB096 with PFGE subgroup B1 containing carbapenemase OXA-23 and OXA-51 by Etest in presence of 64 mg/liter 1-(1-naphthylmethyl)-piperazine; type: functional
[36] = test system: Acinetobacter baumannii; experiment: Antibacterial activity against intI1-positive tigecycline-resistant Acinetobacter baumannii AB125 with PFGE subgroup A1 containing carbapenemase OXA-23 and OXA-51 by Etest in presence of 64 mg/liter 1-(1-naphthylmethyl)-piperazine; type: functional
[37] = test system: Acinetobacter baumannii; experiment: Antibacterial activity against intI1-negative tigecycline-intermediate Acinetobacter baumannii AB098 with PFGE subgroup F containing carbapenemase OXA-23 and OXA-51 by Etest in presence of 64 mg/liter 1-(1-naphthylmethyl)-piperazine; type: functional

C[C@H]1COc2c(N3CCN(C)CC3)c(F)cc3c(=O)c(C(=O)O)cn1c23.C[C@H]1COc2c(N3CCN(C)CC3)c(F)cc3c(=O)c(C(=O)O)cn1c23.O [LEVOFLOXACIN]
MIC [1]: > 32 µg/mL
MIC [2]: > 32 µg/mL
MIC [3]: 32 µg/mL
MIC [4]: > 32 µg/mL
MIC [5]: 6 µg/mL
MIC [6]: > 32 µg/mL
MIC [7]: > 32 µg/mL
MIC [8]: > 32 µg/mL
MIC [9]: > 32 µg/mL
MIC [10]: > 32 µg/mL
MIC [11]: 12 µg/mL
MIC [12]: > 32 µg/mL
MIC [13]: > 32 µg/mL
MIC [14]: > 32 µg/mL
MIC [15]: > 32 µg/mL
MIC [16]: > 32 µg/mL

CCN1CCN(C(=O)N[C@@H](C(=O)N[C@@H]2C(=O)N3[C@@H]2SC(C)(C)[C@@H]3C(=O)O)c2ccccc2)C(=O)C1=O [PIPERACILLIN]
MIC [1]: > 128 µg/mL
MIC [2]: > 128 µg/mL
MIC [3]: > 128 µg/mL
MIC [4]: > 128 µg/mL
MIC [5]: > 128 µg/mL
MIC [6]: > 128 µg/mL
MIC [7]: > 128 µg/mL
MIC [17]: > 128 µg/mL
MIC [8]: > 128 µg/mL
MIC [9]: > 128 µg/mL
MIC [10]: > 128 µg/mL
MIC [11]: > 128 µg/mL
MIC [12]: > 128 µg/mL
MIC [13]: > 128 µg/mL
MIC [14]: > 128 µg/mL
MIC [15]: > 128 µg/mL
MIC [16]: > 128 µg/mL

C[C@]1(Cn2ccnn2)[C@H](C(=O)O)N2C(=O)C[C@H]2S1(=O)=O [TAZOBACTAM]
MIC [1]: 4 µg/mL (≈ 13.3 µM)
MIC [2]: 4 µg/mL (≈ 13.3 µM)
MIC [3]: 4 µg/mL (≈ 13.3 µM)
MIC [4]: 4 µg/mL (≈ 13.3 µM)
MIC [5]: 4 µg/mL (≈ 13.3 µM)
MIC [6]: 4 µg/mL (≈ 13.3 µM)
MIC [7]: 4 µg/mL (≈ 13.3 µM)
MIC [17]: 4 µg/mL (≈ 13.3 µM)
MIC [8]: 4 µg/mL (≈ 13.3 µM)
MIC [9]: 4 µg/mL (≈ 13.3 µM)
MIC [10]: 4 µg/mL (≈ 13.3 µM)
MIC [11]: 4 µg/mL (≈ 13.3 µM)
MIC [12]: 4 µg/mL (≈ 13.3 µM)
MIC [13]: 4 µg/mL (≈ 13.3 µM)
MIC [14]: 4 µg/mL (≈ 13.3 µM)
MIC [15]: 4 µg/mL (≈ 13.3 µM)
MIC [16]: 4 µg/mL (≈ 13.3 µM)

C[C@@H](O)[C@H]1C(=O)N2C(C(=O)O)=C(SCCNC=N)C[C@H]12 [IMIPENEM ANHYDROUS]
MIC [1]: > 32 µg/mL
MIC [2]: > 32 µg/mL
MIC [3]: > 32 µg/mL
MIC [4]: > 32 µg/mL
MIC [5]: 8 µg/mL (≈ 26.7 µM)
MIC [6]: > 32 µg/mL
MIC [7]: 6 µg/mL (≈ 20 µM)
MIC [17]: > 32 µg/mL
MIC [8]: 32 µg/mL (≈ 107 µM)
MIC [9]: 32 µg/mL (≈ 107 µM)
MIC [10]: > 32 µg/mL
MIC [11]: 1.5 µg/mL (≈ 5.01 µM)
MIC [12]: 32 µg/mL (≈ 107 µM)
MIC [13]: > 32 µg/mL
MIC [14]: 32 µg/mL (≈ 107 µM)
MIC [15]: > 32 µg/mL
MIC [16]: > 32 µg/mL

CN(C)c1cc(NC(=O)CNC(C)(C)C)c(O)c2c1C[C@H]1C[C@H]3[C@H](N(C)C)C(O)=C(C(N)=O)C(=O)[C@@]3(O)C(O)=C1C2=O [TIGECYCLINE]
MIC50 [18]: 16 µg/mL (≈ 27.3 µM)
MIC90 [18]: 32 µg/mL (≈ 54.6 µM)
MIC [19]: 2 µg/mL
MIC [20]: 4 µg/mL
MIC [1]: 8 µg/mL (≈ 13.7 µM)
MIC [2]: 6 µg/mL (≈ 10.2 µM)
MIC [21]: 4 µg/mL
MIC [3]: 8 µg/mL (≈ 13.7 µM)
MIC [4]: 12 µg/mL (≈ 20.5 µM)
MIC [22]: 6 µg/mL
MIC [5]: 2 µg/mL (≈ 3.41 µM)
MIC [23]: 3 µg/mL
MIC [6]: 8 µg/mL (≈ 13.7 µM)
MIC [7]: 4 µg/mL (≈ 6.83 µM)
MIC [17]: 2 µg/mL (≈ 3.41 µM)
MIC [24]: 4 µg/mL
MIC [25]: 4 µg/mL
MIC [8]: 8 µg/mL (≈ 13.7 µM)
MIC [9]: 8 µg/mL (≈ 13.7 µM)
MIC50 [26]: 2 µg/mL (≈ 3.41 µM)
MIC90 [26]: 4 µg/mL (≈ 6.83 µM)
MIC [10]: 8 µg/mL (≈ 13.7 µM)
MIC [27]: 4 µg/mL
MIC [28]: 4 µg/mL
MIC [11]: 2 µg/mL (≈ 3.41 µM)
MIC [29]: 4 µg/mL
MIC [12]: 4 µg/mL (≈ 6.83 µM)
MIC [30]: 4 µg/mL
MIC [31]: 3 µg/mL
MIC [13]: 8 µg/mL (≈ 13.7 µM)
MIC [32]: 4 µg/mL
MIC [14]: 2 µg/mL (≈ 3.41 µM)
MIC [15]: 16 µg/mL (≈ 27.3 µM)
MIC [33]: 6 µg/mL
Css [34]: 630 ng/mL
MIC [35]: 8 µg/mL
MIC [36]: 8 µg/mL
MIC [37]: 4 µg/mL
MIC [16]: 6 µg/mL (≈ 10.2 µM)
